Assay results as given in US5380724A, “Piperazine and homopiperazine derivatives, pharmaceutical compositions containing them and process for preparing same” (Gyogyszerkutato Intezet KFT, priority 1992, dated 1995).

Legend:
[1] = system: ischemia induced weight increase of the small intestine; assay: inhibition of ischemia induced weight increase of a definite section in the small intestine of rats; assay type: in vivo; details: Rattus norvegicus, 25 mg/kg oral
Experimental: 2. […] The percentage of inhibition observed after administration of a 25 mg/kg oral dose of the compounds of the invention or of the reference compounds is shown in Table 5.

acute toxicity in rats = assay type: in vivo; details: rat, in vivo, oral
rats = assay: acute toxicity in rats; assay type: in vivo; details: 1000 mg/kg oral
acute brain injury = assay: inhibition of acute brain injury of mice (improvement in the neurological state); assay type: in vivo; details: intravenous
Text: 1. […] 68, 456 (1988)]. The doses of the test compounds administered by the intravenous route and the percentage of improvement in the neurological state are summarized in Table 4.

[2] = system: rat brain homogenate (ferrous ion dependent lipid peroxidation); assay: ferrous ion dependent lipid peroxidation inhibitory activity on rat brain homogenate (thiobarbituric acid reactive substances); assay type: biochemical; details: Fe2+ dependent lipid peroxidation, TBARS
Experimental: 1. The ferrous ion dependent lipid peroxidation inhibitory activity was measured on rat brain homogenate by using the method descibed by J. M. Braughler et al., [J. Biol. Chem. 262, 10438 (1987)] and J. A. Buege and S. D. […] The IC50 value is defined as the concentration of a test substance which reduces by 50% the amount of the thiobarbituric acid reactive substances (chiefly malondialdehyde) considered to be a characteristic parameter of lipid peroxidation.

[3] = system: NADPH dependent lipid peroxidation; assay: inhibition of the NADPH dependent lipid peroxidation; assay type: biochemical
Experimental: 3. Inhibiton of the NADPH dependent lipid peroxidation was measured according to T. J. Player and A. A. Horton [J. Neurochem. 37, 422 (1981)] and Z. Duniec [Biochem. Pharmacol. 32, 2283 (1983)]. The IC50 values (expressed in micromols) of some compounds of the invention, further those of the reference compounds determined in this test are given in Table 3.

[4] = system: arachidonic acid (ferrous ion dependent peroxidation); assay: inhibition of the ferrous ion dependent peroxidation of arachidonic acid; assay type: biochemical; details: Fe2+ dependent peroxidation of arachidonic acid
Experimental: 2. The inhibition of the ferrous ion dependent peroxidation of arachidonic acid was also measured by the method of J. M. Braughler et al. [J. Biol. Chem. 262, 10438 (1987)] and J. A. Buege and S. D. Aust [Methods in Enzymology 52, 302 (1978)]. The IC50 values (expressed in micromols) of some compounds of the invention, further those of the reference compounds determined in this test are shown in Table 2.

Row | Structure (SMILES) | inhibition in vivo at 25 mg/kg [1] | LD50 (acute toxicity in rats) | death of treated animals (rats) | Improvement (in the neurological state) (acute brain injury; 10 mg/kg) | IC50 [2] | Improvement (in the neurological state) (acute brain injury; 20 mg/kg) | IC50 [3] | IC50 [4]
1 | Nc1cc(N2CCN(C(=O)COc3ccc4ccccc4c3)CC2)nc(N)n1 [Example 34] | 69% | > 1000 mg/kg | did not provoke death of any of the treated animals |  |  |  |  | 
2 | C=CCCCCCCCCC(=O)N1CCN(c2cc(N3CCCC3)nc(N3CCCC3)n2)CC1 [Example 1, 1-(10-Undecenoyl)-4-[2,6-di(1-pyrrolidinyl)-4-pyrimidinyl]piperazine] | 55% | > 1000 mg/kg | did not provoke death of any of the treated animals | 68% | 30 µM |  |  | 
3 | OC(COc1ccc2ccccc2c1)CN1CCCN(c2cc(N3CCCC3)nc(N3CCCC3)n2)CC1 (stereo not shown) [Example 27] | 60% | > 1000 mg/kg | did not provoke death of any of the treated animals |  | 8 µM | 82% | 22 µM | 
4 | c1ccc(C(c2ccccc2)(c2ccccc2)N2CCN(c3cc(N4CCCC4)nc(N4CCCC4)n3)CC2)cc1 [Example 10] | 56% | > 1000 mg/kg | did not provoke death of any of the treated animals |  |  |  |  | 
5 | Nc1nc(N)c2nc(-c3ccc(OCC(O)CN4CCNCC4)cc3)c(N)nc2n1 (stereo not shown) [Example 50, 6-[4-[2-Hydroxy-3-(1-piperazinyl)propoxy]phenyl]-2,4,7-triamino-pteridine] | 78% | > 1000 mg/kg | did not provoke death of any of the treated animals |  |  | 93% |  | 15 µM
6 | Nc1cc(N2CCN(CC(O)COc3ccc4c(c3)CCCC4=O)CC2)nc(N)n1 (stereo not shown) [Example 28] | 64% | > 1000 mg/kg | did not provoke death of any of the treated animals |  |  |  |  | 
